The values below come from patent publication US20240207247A1, “METHODS FOR THE COMBINED ADMINISTRATION OF DEUTETRABENAZINE AND A CYP2D6 INHIBITOR” (Neurocrine Biosciences, Inc., priority 2021, published 2024).

Data set [1] in a line: Phase 1 open-label 2-sequence crossover single-dose pharmacokinetic study of deutetrabenazine metabolites. It counts as in vivo, human (healthy male and female subjects). The settings on record: share of total DHTBZ exposure after single dose deutetrabenazine 24 mg, healthy subjects. On the procedure: A phase 1, open-label, 2-sequence crossover study was conducted to evaluate the HTBZ PK profile following administration of valbenazine (40 mg) or deutetrabenazine (24 mg) to a total of 18 healthy male and female subjects. Subjects received a single dose of valbenazine 40 mg on Day 1 and a single dose of deutetrabenazine 24 mg on Day 16; or received a single dose of deutetrabenazine 24 mg on Day 1 and a single dose of valbenazine 40 mg on Day 16. Valbenazine 40 mg was administered as one 40 mg capsule and deutetrabenazine 24 mg was administered as two 12 mg tablets. Study drug was administered at approximately 0800 hours, approximately 30 minutes after the start of a standard breakfast. […] PK parameters were determined using non-compartmental analysis with Phoenix WinNonlin 8.3 software. The in vitro pharmacology of the deuterated HTBZ metabolites was assessed using competitive radioligand binding assays.

For data set [2] the following is noted: paroxetine 20 mg daily for 8 days, then single 22.5 mg dose of deutetrabenazine; 24 healthy subjects; cited from earlier work.

Turning to `[2H]C([2H])([2H])Oc1cc2c(cc1OC([2H])([2H])[2H])[C@H]1C[C@@H](O)[C@H](CC(C)C)CN1CC2` [[+]-α-DHTBZ], the “AUC (% of Total)” value in data set [1] is given as 2%.
Consider `[2H]C([2H])([2H])Oc1cc2c(cc1OC([2H])([2H])[2H])[C@H]1C[C@H](O)[C@H](CC(C)C)CN1CC2` [[+]-β-DHTBZ, (+)-β-3-isobutyl-9,10-di(methoxy-d3)-1,3,4,6,7,11b-hexahydro-2H-pyrido[2,1-a]isoquinolin-2-ol], for which, in data set [1], the “AUC (% of Total)” value worked out at 29%.
On to `[2H]C([2H])([2H])Oc1cc2c(cc1OC([2H])([2H])[2H])[C@@H]1C[C@H](O)[C@@H](CC(C)C)CN1CC2` [[−]-α-DHTBZ, (−)-α-3-isobutyl-9,10-di(methoxy-d3)-1,3,4,6,7,11b-hexahydro-2H-pyrido[2,1-a]isoquinolin-2-ol], for which the “AUC (% of Total)” value in data set [1] came out at 66%.
With `[2H]C([2H])([2H])Oc1cc2c(cc1OC([2H])([2H])[2H])[C@@H]1C[C@@H](O)[C@@H](CC(C)C)CN1CC2` [[−]-β-DHTBZ, (−) -β-3-isobutyl-9,10-di(methoxy-d3)-1,3,4,6,7,11b-hexahydro-2H-pyrido[2,1-a]isoquinolin-2-ol], the “AUC (% of Total)” value in data set [1] stood at 3%.
Consider `COc1cc2c(cc1OC)[C@@H]1C[C@H](O)[C@@H](CC(C)C)CN1CC2` [α-DHTBZ], for which the “increase in mean half-life in the presence of paroxetine” value in data set [2] is “approximately 1.5 fold”.
